Data from patent US20210300900A1, “OGA INHIBITOR COMPOUNDS” (Janssen Pharmaceutica NV, priority 2018, published 2021).

Target: T1, recombinant human Meningioma Expressed Antigen 5 (MGEA5), also referred to as O-GcNAcase (OGA) (Homo sapiens, UniProt O60502)
T1 construct: Full length OGA enzyme was purchased at OnGene (cat #TP322411); purchased OnGene (so in the source)
T1 sequence (O60502 1-916): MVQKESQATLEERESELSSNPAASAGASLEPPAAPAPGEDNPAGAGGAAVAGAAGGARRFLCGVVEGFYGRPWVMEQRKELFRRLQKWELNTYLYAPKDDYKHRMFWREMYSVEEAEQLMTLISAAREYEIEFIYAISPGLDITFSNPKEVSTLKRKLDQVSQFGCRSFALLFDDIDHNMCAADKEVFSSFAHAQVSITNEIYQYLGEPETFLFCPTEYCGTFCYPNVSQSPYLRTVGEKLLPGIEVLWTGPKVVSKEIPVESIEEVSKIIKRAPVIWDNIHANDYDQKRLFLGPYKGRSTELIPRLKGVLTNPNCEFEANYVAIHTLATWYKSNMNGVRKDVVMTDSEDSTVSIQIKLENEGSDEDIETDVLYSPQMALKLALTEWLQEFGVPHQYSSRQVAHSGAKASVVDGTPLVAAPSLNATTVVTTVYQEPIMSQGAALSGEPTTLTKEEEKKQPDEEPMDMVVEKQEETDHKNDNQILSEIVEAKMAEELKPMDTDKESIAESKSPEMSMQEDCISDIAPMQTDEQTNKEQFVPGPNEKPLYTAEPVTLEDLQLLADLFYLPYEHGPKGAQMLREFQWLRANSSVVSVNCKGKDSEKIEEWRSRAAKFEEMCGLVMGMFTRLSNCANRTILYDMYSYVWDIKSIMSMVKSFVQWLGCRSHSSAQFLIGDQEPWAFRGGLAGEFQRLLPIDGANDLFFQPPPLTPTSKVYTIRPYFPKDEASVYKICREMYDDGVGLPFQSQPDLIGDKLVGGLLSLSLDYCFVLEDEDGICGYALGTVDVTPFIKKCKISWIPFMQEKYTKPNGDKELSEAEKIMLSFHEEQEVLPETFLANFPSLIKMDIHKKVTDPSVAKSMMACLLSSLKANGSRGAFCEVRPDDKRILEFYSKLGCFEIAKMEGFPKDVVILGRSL
Assay: OGA biochemical assay (inhibition of FM-GlcNAc hydrolysis, fluorescence)
Settings: FM-GlcNAc substrate; for Emax: read-out: Enzymatic Emax (%); for IC50: read-out: Enzymatic hOGA, pIC50 (converted)
Source text: The assay is based on the inhibition of the hydrolysis of fluorescein mono-β-D-N-Acetyl-Glucosamine (FM-GlcNAc) (Mariappa et al. 2015, Biochem J 470:255) by the recombinant human Meningioma Expressed Antigen 5 (MGEA5), also referred to as O-GcNAcase (OGA). The hydrolysis FM-GlcNAc (Marker Gene technologies, cat #M1485) results in the formation of B-D-N-glucosamineacetate and fluorescein. The fluorescence of the latter can be measured at excitation wavelength 485 nm and emission wavelength 538 nm. An increase in enzyme activity results in an increase in fluorescence signal. Full length OGA enzyme was purchased at OnGene (cat #TP322411). The enzyme was stored in 25 mM Tris.HCl, pH 7.3, 100 mM glycine, 10% glycerol at −20° C. Thiamet G and GlcNAcStatin were tested as reference compounds (Yuzwa et al. 2008 Nature Chemical Biology 4:483; Yuzwa et al. 2012 Nature Chemical Biology 8:393). The assay was performed in 200 mM Citrate/phosphate buffer supplemented with 0.005% Tween-20. 35.6 g Na2HPO4 2H2O (Sigma, #C0759) were dissolved in 1 L water to obtain a 200 mM solution. 19.2 g citric acid (Merck, #1.06580) was dissolved in 1 L water to obtain a 100 mM solution. pH of the sodiumphosphate solution was adjusted with the citric acid solution to 7.2. The buffer to stop the reaction consists of a 500 mM Carbonate buffer, pH 11.0. 734 mg FM-GlcNAc were dissolved in 5.48 mL DMSO to obtain a 250 mM solution and was stored at −20° C. OGA was used at a 2 nM concentration and FM-GlcNAc at a 100 uM final concentration. Dilutions were prepared in assay buffer.
50 nl of a compound dissolved in DMSO was dispensed on Black Proxiplate TM 384 Plus Assay plates (Perkin Elmer, #6008269) and 3 μl fl-OGA enzyme mix added subsequently. Plates were pre-incubated for 60 min at room temperature and then 2 μl FM-GlcNAc substrate mix added. […] Plates were briefly centrifuged for 1 min at 1000 rpm and incubate at room temperature for 6 h. To stop the reaction 5 μl STOP buffer were added and plates centrifuge again 1 min at 1000 rpm. Fluorescence was quantified in the Thermo Scientific Fluoroskan Ascent or the PerkinElmer EnVision with excitation wavelength 485 nm and emission wavelength 538 nm.
For analysis a best-fit curve is fitted by a minimum sum of squares method. From this an IC50 value and Hill coefficient was obtained. High control (no inhibitor) and low control (saturating concentrations of standard inhibitor) were used to define the minimum and maximum values.

SMILES | Emax | IC50 | Enzymatic Emax (%) | Enzymatic hOGA; pIC50
COc1cccc(C(C)N2CC[C@H](Cc3ccnc(OC(C)C)c3)C2)n1 (mixture of isomers) [Product 126] | 56% | 9.55 µM |  | 
COc1cccc(C(C)N2CC[C@H](Cc3ccnc(C(F)(F)F)c3)C2)n1 (mixture of isomers) [Product 127] | 60% | 7.24 µM |  | 
COc1cc(C[C@H]2CCN(C(C)c3cc(NC(C)=O)[nH]n3)C2)cc(C)n1 (mixture of isomers) [Product 128] | 94% | 0.575 µM |  | 
COc1cc(C[C@H]2CCN(C(C)c3cccc(OC)n3)C2)cc(C)n1 (mixture of isomers) [Product 129] | 75% | 4.37 µM |  | 
COc1cc(C[C@@H]2CCN(C(C)c3cc(NC(C)=O)[nH]n3)C2)cc(C)n1 (mixture of isomers) [Product 131] | 97% | 0.38 µM |  | 
COCc1cc(C(C)N2CC[C@@H](Cc3cc(C)nc(OC)c3)C2)nn1C (mixture of isomers) [Product 132] | 59% | 7.76 µM |  | 
CCOc1cnc(C(C)N2CC[C@@H](Cc3cc(C)nc(OC)c3)C2)o1 (mixture of isomers) [Product 133] | 98% | 0.759 µM |  | 
CCOc1cc(C(C)N2CC[C@H](Cc3cc(C)nc(C)c3)C2)n[nH]1 (mixture of isomers) [Product 139] | 73.3% | 3.98 µM |  | 
COc1cccc(C(C)N2CC[C@H](Cc3cccnc3OC)C2)n1 (mixture of isomers) [Product 140] | 29.3% | > 10 µM |  | 
COc1cccc(C(C)N2CC[C@H](Cc3cncc(C(F)(F)F)c3)C2)n1 (mixture of isomers) [Product 141] | 35.6% | > 10 µM |  | 
COc1cccc(C(C)N2CC[C@H](Cc3ccc(C(F)(F)F)nc3)C2)n1 (mixture of isomers) [Product 142] | 30.5% | > 10 µM |  | 
COc1cncc(C[C@H]2CCN(C(C)c3cccc(OC)n3)C2)c1 (mixture of isomers) [Product 143] | 38% | > 10 µM |  | 
COc1cccc(C(C)N2CC[C@H](Cc3cncc(F)c3)C2)n1 (mixture of isomers) [Product 144] | 43.4% | > 10 µM |  | 
COc1cccc(C(C)N2CC[C@H](Cc3cccnc3C(F)(F)F)C2)n1 (mixture of isomers) [Product 145] | 44.3% | > 10 µM |  | 
COc1cccc(C(C)N2CC[C@H](Cc3ccncc3F)C2)n1 (mixture of isomers) [Product 146] | 33.1% | > 10 µM |  | 
COc1cccc(C(C)N2CC[C@H](Cc3cccc(C(F)(F)F)n3)C2)n1 (mixture of isomers) [Product 147] | 14.4% | > 10 µM |  | 
COc1cccc(C(C)N2CC[C@H](Cc3ncccc3F)C2)n1 (mixture of isomers) [Product 148] | 11.3% | > 10 µM |  | 
COc1cccc(C[C@H]2CCN(C(C)c3cccc(OC)n3)C2)n1 (mixture of isomers) [Product 149] | 30.3% | > 10 µM |  | 
COc1ccc(C[C@H]2CCN(C(C)c3cccc(OC)n3)C2)nc1 (mixture of isomers) [Product 150] | 46% | > 10 µM |  | 
COc1cccc(C(C)N2CC[C@H](Cc3ncccc3OC)C2)n1 (mixture of isomers) [Product 151] | 11.8% | > 10 µM |  | 
CNC(=O)c1nc(C(C)N2CC[C@@H](Cc3cc(C)nc(C)c3)C2)c[nH]1 (mixture of isomers) [Product 163] | 29% | > 10 µM |  | 

SMILES | Emax | IC50 | Enzymatic Emax (%) | Enzymatic hOGA; pIC50
CCOc1cc(C[C@@H]2CCN(C(C)c3c[nH]c(OCC)n3)C2)ccn1 (mixture of isomers) [Product 164] | 26% | > 10 µM |  | 
CCOc1cccc(C(C)N2CCCC(Cc3cc(C)nc(C)c3)C2)n1 (single isomer, unassigned) [Product 50] | 16% | > 10 µM |  | 
Cc1cc(C[C@H]2CCCN(C(C)c3nc(OC4CCC4)ccc3F)C2)cc(C)n1 (single isomer, unassigned) [Product 55] | 97% | 0.302 µM |  | 
CCNc1cc(CN2CCC[C@H](Cc3cc(C)nc(C)c3)C2)n[nH]1 [Product 2] | 93% | 1.05 µM |  | 
CC(=O)Nc1cc([C@@H](C)N2CCC[C@H](Cc3cc(C)nc(C)c3)C2)n[nH]1 [Product 4] |  |  | 100% | 6.61
CC(=O)N(C)c1cc(CN2CCC[C@H](Cc3cc(C)nc(C)c3)C2)n[nH]1 [Product 10] | 90% | 1.32 µM |  | 
CC(=O)Nc1cc(CN2CCC[C@H](Cc3cc(C)nc(C)c3)C2)n(C)n1 [Product 11] | 90% | 1.35 µM |  | 
CC(=O)Nc1[nH]nc([C@@H](C)N2CCC[C@H](Cc3cc(C)nc(C)c3)C2)c1C [Product 12] |  |  | 36% | <5
CC(=O)Nc1[nH]nc([C@H](C)N2CCC[C@H](Cc3cc(C)nc(C)c3)C2)c1C [Product 13] |  |  | 7% | <5
CCOc1cc([C@@H](C)N2CCC[C@H](Cc3cc(C)nc(C)c3)C2)n[nH]1 [Product 15] |  |  | 65% | 5.27
CCOc1nc(CN2CCC[C@H](Cc3cc(C)nc(C)c3)C2)c(Br)[nH]1 [Product 22] | 63% | 6.61 µM |  | 
Cc1cc(C[C@H]2CCCN(Cc3c[nH]c(C)n3)C2)cc(C)n1 [Product 25] | 82% | 3.02 µM |  | 
CCOc1ncc(CN2CCC[C@H](Cc3cc(C)nc(C)c3)C2)s1 [Product 26] | 71% | 4.57 µM |  | 
CC(=O)Nc1cc(CN2CCC[C@H](Cc3cc(C)nc(C)c3)C2)cs1 [Product 27] | 89% | 1.05 µM |  | 
CC(=O)Nc1ccnc(CN2CCC[C@H](Cc3cc(C)nc(C)c3)C2)c1 [Product 31] | 63% | 6.46 µM |  | 
CC(=O)Nc1ccnc(C(C)N2CCC[C@H](Cc3cc(C)nc(C)c3)C2)c1 (stereo partly drawn) [Product 32] | 95% | 0.49 µM |  | 
COc1ccc(F)c([C@@H](C)N2CCC[C@H](Cc3cc(C)nc(C)c3)C2)n1 [Product 41] |  |  | 44% | <5
COc1cccc([C@@H](C)N2CCC[C@H](Cc3cc(C)nc(C)c3)C2)n1 [Product 46] |  |  | 12% | <5
CCOc1cccc([C@@H](C)N2CCC[C@H](Cc3cc(C)nc(C)c3)C2)n1 [Product 51] |  |  | 102% | 7.01
Cc1cc(C[C@H]2CCCN([C@H](C)c3nc(OC4CCC4)ccc3F)C2)cc(C)n1 [Product 54] |  |  | 10% | <5
COc1ccc(C)c([C@@H](C)N2CCC[C@H](Cc3cc(C)nc(C)c3)C2)n1 [Product 57] |  |  | 6% | <5
